This note sets out measurements from paper PMC3804601, “Single Nucleotide Polymorphisms of Human STING Can Affect Innate Immune Response to Cyclic Dinucleotides” (PLoS ONE, 2013).

The target of series [1] is T1, hSTING (stimulator of interferon genes) (Homo sapiens, UniProt Q86WV6).
T1 construct: gene STING1; hSTING cDNA with C-terminal Flag tag expressed in HEK293T cells
The experiment in a line: IFN-β luciferase reporter in STING-transfected, digitonin-permeabilized HEK293T cells (vector control inactive). It counts as cell-based. (Reporter assays use an easily measured gene product as a stand-in for the process of interest.)

The target in series [2] is T2, hSTING (stimulator of interferon genes) (Homo sapiens, UniProt Q86WV6, H232R).
T2 construct: gene STING1; C-terminal domain, residues 149-341, C-terminal 6×His tag (WT = R232)
The series is described as follows: isothermal titration calorimetry; DSF shift (+[…]°C). It counts as binding. In general terms: In ITC the heat of successive injections is recorded.

For series [3], the target named is T3, hSTING (stimulator of interferon genes) (Homo sapiens, UniProt Q86WV6, G230A/H232R).
T3 construct: gene STING1; C-terminal domain, residues 149-341, C-terminal 6×His tag (WT = R232)
The series is described as follows: isothermal titration calorimetry; DSF shift (+[…]°C). It is filed as binding.

T2 sequence (Q86WV6 149-341 H232R): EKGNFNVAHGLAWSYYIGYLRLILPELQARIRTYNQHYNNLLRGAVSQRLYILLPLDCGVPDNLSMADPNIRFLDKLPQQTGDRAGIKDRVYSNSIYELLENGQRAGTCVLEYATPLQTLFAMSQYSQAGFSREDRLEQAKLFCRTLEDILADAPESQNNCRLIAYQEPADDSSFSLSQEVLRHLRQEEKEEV
T3 sequence (Q86WV6 149-341 G230A/H232R): as the sequence (Q86WV6 149-341 H232R) above, with G82A counted along it
T1 sequence (Q86WV6 whole entry): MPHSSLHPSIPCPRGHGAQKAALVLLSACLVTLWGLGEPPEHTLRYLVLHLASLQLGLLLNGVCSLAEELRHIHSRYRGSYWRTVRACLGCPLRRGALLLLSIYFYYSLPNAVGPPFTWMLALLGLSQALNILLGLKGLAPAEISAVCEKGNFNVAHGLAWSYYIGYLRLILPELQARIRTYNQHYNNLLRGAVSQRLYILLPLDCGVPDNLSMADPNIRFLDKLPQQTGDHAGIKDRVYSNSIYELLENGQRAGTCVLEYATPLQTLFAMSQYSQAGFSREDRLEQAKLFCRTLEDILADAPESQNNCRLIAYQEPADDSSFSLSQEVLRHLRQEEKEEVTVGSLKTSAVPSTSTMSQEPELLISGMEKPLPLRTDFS

Turning to `Nc1ncnc2c1ncn2[C@@H]1O[C@@H]2COP(=O)(O)O[C@H]3[C@@H](O)[C@H](n4cnc5c(N)ncnc54)O[C@@H]3COP(=O)(O)O[C@H]2[C@H]1O` [c-di-AMP], the “IFN-β luciferase reporter in STING-transfected, digitonin-permeabilized HEK293T” value in series [1] is 16.1 fold (ratio to unstimulated). On to `Nc1nc2c(ncn2[C@@H]2O[C@@H]3CO[P@](=O)(O)O[C@H]4[C@@H](O)[C@H](n5cnc6c(=O)[nH]c(N)nc65)O[C@@H]4CO[P@](=O)(O)O[C@H]3[C@H]2O)c(=O)[nH]1` [c-di-GMP], for which the dissociation constant Kd (in general, the constant that tells how readily two partners part at equilibrium) in series [2] was 3300 nM; in series [3] it was 1900 nM.
